Assay results: PMC4464085, “Exploring monovalent and multivalent peptides for the inhibition of FBP21-tWW” (Beilstein Journal of Organic Chemistry, 2015)
Blank lines part the entries; values can stand above or below the molecule they belong to. Ends that are not written are not given here.

Columns and labels:
FBP21-WW1 = target: T1, FBP21-WW1 (Homo sapiens, UniProt O75554); assay: Isothermal titration calorimetry (ITC) with FBP21-WW1; type: binding; conditions: PBS pH 7.4, 25 °C, protein in cell 250 µM, peptide in syringe 5 mM, GST-tagged FBP21-WW1
T1 construct: with regard to FBP21’s WW domains by ITC; GST (N); made in house; host or cells: E. coli BL21 DE3 (pGEX4T1)
T1 sequence (O75554 122-155 limits assumed): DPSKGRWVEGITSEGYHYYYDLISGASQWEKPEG
Procedure: In order to determine an optimal peptide sequence for a FBP21-tWW ligand, we conducted a phage display experiment for each of the two WW domains. Phages used in these experiments carried a randomized X9-peptide fused to phage coat protein VIII [16]. Enrichment factors were calculated after each selection cycle, and reached a plateau after four panning rounds. Phagemids were isolated and sequenced after the third and fourth panning rounds. The sequences for WW1 and WW2 were overlapping to a large extent, showing their similarity in binding preference. This is expected from evolutionary and binding studies carried out earlier. In agreement with previous findings for this group of WW domains a polyproline stretch and an arginine residue are present in most sequenced clones. […] To define an optimized single monovalent binder, we analyzed the affinities for a selected set of ligands from this panel of sequences with regard to FBP21’s WW domains by ITC under the same conditions as were used for the phage display. […] To further analyze which residues are essential for the interaction, we performed substitution analyses using peptide SPOT arrays (Figure 1D, Supporting Information File 1 Figure S1). The experiment gives some insight into binding specificities. The central role of proline P5 for binding of peptides is evident for both WW domains (Figure 1D, Supporting Information File 1 Figure S1). Proline fulfills two requirements. On the one hand it promotes formation of the PPII helix conformation, on the other hand, it is accommodated well into the hydrophobic groove provided by the individual WW domains. At position P4 proline can be replaced by leucine, a residue well compatible with the PPII helical conformation. Arginine is preferred at position 6 or 9, highlighting the importance of a positive charge in complex formation. […] Possibly, the hybrid resonance of the guanidinium group in the arginine is more important in the case of WW2 compared to WW1. […]
(§1) Isothermal titration calorimetry
(§2) The His6-FBP21-tWW, FBP21-WW1 and FBP21-WW2 were dialyzed against PBS, pH 7.4.
(§3) Peptides were dissolved in PBS and the pH was adjusted to 7.4. hPG-peptide conjugate 2 was dialyzed against Millipore water and the buffer components were adjusted to PBS pH 7.4. The concentration was analyzed for all components by measuring absorbance at 280 nm using a Nanodrop2000 (Thermo Scientific). Extinction coefficients were Ɛ = 5500 M−1cm−1 for WPPPPRVPR and Ɛ = 32430 M−1cm−1 for FBP21-tWW. Accounting for the number of peptides on the scaffold, we calculated an extinction coefficient of Ɛ = 38500 M−1cm−1 for the hPG-peptide conjugate 2. ITC experiments were carried out on a Microcal ITC200 (GE Healthcare).
The parameters were set to: temperature 25 °C, spacing: 120 s (for WW1 and WW2 measurements) or 180 s (for tWW measurements), stirring speed: 1000 rpm, feedback gain: high, Filter: 5 s, DP: 7 µcal/s. In ITC measurements with FBP21 WW1 and WW2, the protein in the cell was concentrated to 250 µM, the peptide in the syringe to 5 mM, injected was 1 × 1 µL, then 15 × 2.5 µL. In ITC measurements with FBP21-tWW and peptide the protein concentration in the cell was 200 µM and the peptide concentration in the syringe 4 mM. […] The data was analyzed with Origin and the Microcal ITC 200 AddOn. […]
FBP21-WW1 and FBP21-WW2 were expressed as a GST-tagged variant from pgex4T1 in E. coli BL21 DE3, FBP21-tWW was expressed from a pET28a-His6-FBP21-tWW plasmid in […]

FBP21-WW2 = target: T2, FBP21-WW2 (Homo sapiens, UniProt O75554); assay: Isothermal titration calorimetry (ITC) with FBP21-WW2; type: binding; conditions: PBS pH 7.4, 25 °C, protein in cell 250 µM, peptide in syringe 5 mM, GST-tagged FBP21-WW2
T2 construct: with regard to FBP21’s WW domains by ITC; GST (N); made in house; host or cells: E. coli BL21 DE3 (pGEX4T1)
T2 sequence (O75554 163-196 limits assumed): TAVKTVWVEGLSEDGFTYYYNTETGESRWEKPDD
Procedure: as §1, §2, §3
The parameters were set to: temperature 25 °C, spacing: 120 s (for WW1 and WW2 measurements) or 180 s (for tWW measurements), stirring speed: 1000 rpm, feedback gain: high, Filter: 5 s, DP: 7 µcal/s. In ITC measurements with FBP21 WW1 and WW2, the protein in the cell was concentrated to 250 µM, the peptide in the syringe to 5 mM, injected was 1 × 1 µL, then 15 × 2.5 µL. In ITC measurements with FBP21-tWW and peptide the protein concentration in the cell was 200 µM and the peptide concentration in the syringe 4 mM. In ITC measurements with FBP21-tWW and the hPG-peptide conjugate 2, the concentration of 2 in the cell was 90 µM and FBP21-tWW in the syringe 1.4 mM. Injected was 1 × 1 µL, then 19 × 2 µL. The data was analyzed with Origin and the Microcal ITC 200 AddOn. To obtain the stoichiometry (N) and the […]
particles and grown overnight at 30 °C, 250 rpm. The bacteria were pelleted; Phages were precipitated from the supernatant using 20% PEG, 2.5 M NaCl. The precipitated phages were pelleted and washed before resuspension in PBS/30% glycerol.
Protein expression and purification
FBP21-WW1 and FBP21-WW2 were expressed as a GST-tagged variant from pgex4T1 in E. coli BL21 DE3, FBP21-tWW was expressed from a pET28a-His6-FBP21-tWW plasmid in E. coli BL21 DE3 as described previously. Proteins were purified by the corresponding affinity matrices and applied to a HiLoad S75 Superdex 16/60 column in 1 × PBS, pH 7.4.
Proteins were concentrated by Centrifugal Filter Units (regenerated cellulose, 3000 MWCO, […]
SPOT analyses were performed as described. Membranes were blocked with 5% BSA in PBS, washed and incubated with GST, GST-WW1 or GST-WW2 at a concentration of 7.5 µg/mL (GST) or 10 µg/mL (GST-WW1, GST-WW2) respectively overnight at 4 °C. After washing, the spot arrays were incubated with a primary anti-GST antibody (Santa Cruz, GST-Z5, sc-459, 1:1000) for one hour at room temperature in blocking buffer, washed again and incubated for one hour with a secondary anti-rabbit antibody (goat anti-rabbit, Santa Cruz, sc-2004, 1:10000) at room temperature in blocking buffer. The peptide spot arrays were developed with HRP juice purchased from pjk GmbH on an Intas Advanced Fluorescence and ECL imager.
Synthesis of hPG-peptide conjugate 2
The peptide carboxylic acid, i.e., Ac-WPPPPRVPRGSG-COOH (0.0067 mmol, 9 mg), was dissolved in 2 mL dry DMF and cooled down to 0 °C using an ice bath under argon atmosphere.
To the cooled solution, N-hydroxysuccinimide (0.013 mmol, 1.54 mg) and DCC (0.013 mmol, 2.76 mg) were added. The ice bath was removed and the reaction mixture was allowed to stir at room temperature overnight. […]

FBP21-tWW = target: T3, FBP21-tWW (Homo sapiens, UniProt O75554); assay: Isothermal titration calorimetry (ITC) with FBP21-tWW; type: binding; conditions: PBS pH 7.4, 25 °C
T3 construct: made in house; host or cells: E. coli BL21 DE3 (pET28a)
T3 sequence (O75554 122-196 limits assumed): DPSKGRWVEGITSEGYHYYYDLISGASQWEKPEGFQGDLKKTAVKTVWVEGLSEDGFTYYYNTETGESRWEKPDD
Procedure: ITC measurements were performed to analyze the dissociation constant KD of the interaction between FBP21-tWW and hPG-peptide conjugate 2 in PBS, pH 7.4 (Figure 2A). To compare the KD values we also analyzed the binding between FBP21-tWW and the monovalent peptide ligand Ac-WPPPPRVPRGSG-COOH (Figure 2B). […] However, when considering that ≈7 peptides are bound per nanoparticle, the actual multivalency effect is small.
Gel permeation chromatography (GPC)
Molecular weight distribution of hPG-OH core was determined by means of GPC coupled to a refractive index detector (RI) obtaining the complete distribution (Mn, Mp, Mw, dispersity).
Measurements were carried out under highly diluted conditions (5 mg/mL) from a GPC consisting of an Agilent 1100 solvent delivery system with pump, manual injector, and an Agilent differential refractometer. Three 30 cm columns (PPS: Polymer Standards Service GmbH, Germany; Suprema 100 Å, 1000 Å, 3000 Å with 5 and 10 μm particle size) were used to separate aqueous polymer samples using water with 0.1 M NaNO3 as the mobile phase at a flow rate of 1 mL/min. The columns were operated at room temperature with the RI detector at 50 °C. […]
as §3, with “Extinction coefficients were Ɛ = 5500 M−1cm−1 for WPPPPRVPR and Ɛ = 32430 M−1cm−1 for FBP21-tWW.” left out, “ITC experiments were carried out on a Microcal ITC200 (GE Healthcare).” left out
The parameters were set to: temperature 25 °C, spacing: 120 s (for WW1 and WW2 measurements) or 180 s (for tWW measurements), stirring speed: 1000 rpm, feedback gain: high, Filter: 5 s, DP: 7 µcal/s. […] The data was analyzed with Origin and the Microcal ITC 200 AddOn. […]
FBP21-WW1 and FBP21-WW2 were expressed as a GST-tagged variant from pgex4T1 in E. coli BL21 DE3, FBP21-tWW was expressed from a pET28a-His6-FBP21-tWW plasmid in E. coli BL21 DE3 as described previously. […]

hPG-peptide conjugate 2 = target: T4, hPG-peptide conjugate 2 (also: multivalent conjugation to hyperbranched polyglycerol amine (about 7 peptides per polymer), site not given here); assay: ITC
T4 chain: Ac-WPPPPRVPRGSG

Ac-WPPPPRVPRGSG-COOH = target: T5, Ac-WPPPPRVPRGSG-COOH; assay: ITC
T5 chain: Ac-WPPPPRVPRGSG-OH

WPPPPRVPR peptide = target: T6, WPPPPRVPR peptide; assay: ITC
T6 chain: WPPPPRVPR

Molecule: Ac-WPPPPRVPRGSG [Ac-WPPPPRVPRGSG-COOH]
entropy loss upon interaction (FBP21-tWW; FBP21-tWW): −19.5 cal/mol/deg
stoichiometric factor derived from the fit (N) (FBP21-tWW; FBP21-tWW): 1.29 ± 0.0257
Kd (FBP21-tWW; His6-FBP21-tWW, peptide: protein in cell 200 µM, peptide in syringe 4 mM, conjugate 2: 90 µM in cell, FBP21-tWW 1.4 mM in syringe, read-out: KD of the interaction with FBP21-tWW): 150 ± 6 µM

B1: FBP21-tWW WW1-WW2 (protein)
chain: T3 sequence (O75554 122-196 limits assumed)
Kd (hPG-peptide conjugate 2): 17.6 µM
Kd (Ac-WPPPPRVPRGSG-COOH): 150 µM

Molecule: LKKTAVKTVWVEGLSEDGFTYYYNTETGESRWEKPDDFIP [FBP21 WW2 WW2]
Kd (WPPPPRVPR peptide): 87 µM

Molecule: RKKDPSKGRWVEGITSEGYHYYYDLISGASQWEKPEGFQG [FBP21 WW1 WW1]
Kd (WPPPPRVPR peptide): 155 µM

Second part, the molecule after the results:

Kd (FBP21-WW1): 155 ± 18 µM
Kd (FBP21-WW2): 87 ± 3.4 µM
Molecule: Ac-WPPPPRVPR [WPPPPRVPR]

WW1 KD (FBP21-WW1): did not show any binding
WW2 KD (FBP21-WW2): did not show any binding
Molecule: RPPCGYPLP

WW1 KD (FBP21-WW1): could not be confirmed as a binder
WW2 KD (FBP21-WW2): could not be confirmed as a binder
Molecule: RPPPPHFPQ

Kd (FBP21-WW1): 452 ± 45 µM
Kd (FBP21-WW2): 68.5 ± 6.9 µM
Molecule: YPRPPGPPP [YPRPPGPPP]

Kd (FBP21-WW1): 490 ± 54 µM
Kd (FBP21-WW2): 270 ± 24 µM
Molecule: YPRPTNPRP [YPRPTNPRP]
